Data reported in patent publication US20110046131A1, “PURINES AS PKC-THETA INHIBITORS” (N.V. Organon and Pharmacopeia, LLC, priority 2006, published 2011).

Experiments:
Assay type in all cases: biochemical
[1] = molecular target: T1, SGK kinase (Homo sapiens, UniProt O00141); experiment: IC50 for SGK kinase (selectivity); conditions: for IC50: read-out: IC50-SGK1
T1 sequence (O00141 1-431): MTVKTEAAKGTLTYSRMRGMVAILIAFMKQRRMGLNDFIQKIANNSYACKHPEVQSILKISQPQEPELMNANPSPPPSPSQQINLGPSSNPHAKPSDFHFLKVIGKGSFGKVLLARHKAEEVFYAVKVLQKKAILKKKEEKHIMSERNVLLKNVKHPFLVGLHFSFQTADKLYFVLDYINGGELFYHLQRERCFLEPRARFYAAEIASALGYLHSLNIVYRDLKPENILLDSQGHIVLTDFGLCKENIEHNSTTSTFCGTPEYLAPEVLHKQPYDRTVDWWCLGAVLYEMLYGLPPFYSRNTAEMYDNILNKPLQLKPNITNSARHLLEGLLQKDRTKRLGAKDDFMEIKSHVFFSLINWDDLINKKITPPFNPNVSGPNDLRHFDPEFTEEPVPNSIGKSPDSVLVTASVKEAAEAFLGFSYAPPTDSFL
Method: Entries identified with “1” had values above 250 nM; entries identified with “2” had values above 1 μM; entries identified with “3” had values above 10 μM.

[2] = molecular target: T2, PKC alpha (Homo sapiens, UniProt P17252); experiment: Ki Pan Vera (PV) potency for PKC alpha; conditions: Ki Pan Vera (PV) of PKC alpha
T2 construct: purchased Pan Vera
Method: [The source words this procedure for another target and reports this target under the same test.] (§1) For Ki Pan Vera (PV) of PKCθ, entries identified with “A” had values below 100 nM; entries identified with “B” had values below 1 μM; and entries identified with “C” had values below 10 μM.

[3] = molecular target: T3, PKC delta (Homo sapiens, UniProt Q05655); experiment: Ki Pan Vera (PV) potency for PKC delta; conditions: Ki Pan Vera (PV) of PKC delta
T3 construct: purchased Pan Vera
T3 sequence (Q05655 whole entry): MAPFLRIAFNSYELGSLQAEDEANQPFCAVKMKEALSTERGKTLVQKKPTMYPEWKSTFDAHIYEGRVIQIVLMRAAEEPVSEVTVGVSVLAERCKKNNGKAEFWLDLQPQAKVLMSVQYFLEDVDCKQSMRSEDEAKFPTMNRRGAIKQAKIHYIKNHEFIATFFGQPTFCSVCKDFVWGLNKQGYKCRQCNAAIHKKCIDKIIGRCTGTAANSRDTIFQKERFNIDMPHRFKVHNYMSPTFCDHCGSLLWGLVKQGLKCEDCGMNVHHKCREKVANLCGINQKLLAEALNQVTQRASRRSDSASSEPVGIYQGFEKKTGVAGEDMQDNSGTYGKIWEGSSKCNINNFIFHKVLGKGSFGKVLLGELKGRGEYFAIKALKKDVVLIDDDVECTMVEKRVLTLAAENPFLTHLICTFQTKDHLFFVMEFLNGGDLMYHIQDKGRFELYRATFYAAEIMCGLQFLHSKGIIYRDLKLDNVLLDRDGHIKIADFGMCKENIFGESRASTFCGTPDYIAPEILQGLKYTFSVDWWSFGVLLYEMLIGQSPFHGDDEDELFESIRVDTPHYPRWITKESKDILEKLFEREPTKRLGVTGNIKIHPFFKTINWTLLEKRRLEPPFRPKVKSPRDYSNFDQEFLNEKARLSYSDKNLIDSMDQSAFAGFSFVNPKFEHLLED
Method: [The source words this procedure for another target and reports this target under the same test.] as §1

[4] = molecular target: T4, PKCθ (Homo sapiens, UniProt Q04759); experiment: Ki Pan Vera (PV) potency for PKCθ; conditions: Ki Pan Vera (PV) of PKCθ
T4 construct: purchased Pan Vera
T4 sequence (Q04759 whole entry): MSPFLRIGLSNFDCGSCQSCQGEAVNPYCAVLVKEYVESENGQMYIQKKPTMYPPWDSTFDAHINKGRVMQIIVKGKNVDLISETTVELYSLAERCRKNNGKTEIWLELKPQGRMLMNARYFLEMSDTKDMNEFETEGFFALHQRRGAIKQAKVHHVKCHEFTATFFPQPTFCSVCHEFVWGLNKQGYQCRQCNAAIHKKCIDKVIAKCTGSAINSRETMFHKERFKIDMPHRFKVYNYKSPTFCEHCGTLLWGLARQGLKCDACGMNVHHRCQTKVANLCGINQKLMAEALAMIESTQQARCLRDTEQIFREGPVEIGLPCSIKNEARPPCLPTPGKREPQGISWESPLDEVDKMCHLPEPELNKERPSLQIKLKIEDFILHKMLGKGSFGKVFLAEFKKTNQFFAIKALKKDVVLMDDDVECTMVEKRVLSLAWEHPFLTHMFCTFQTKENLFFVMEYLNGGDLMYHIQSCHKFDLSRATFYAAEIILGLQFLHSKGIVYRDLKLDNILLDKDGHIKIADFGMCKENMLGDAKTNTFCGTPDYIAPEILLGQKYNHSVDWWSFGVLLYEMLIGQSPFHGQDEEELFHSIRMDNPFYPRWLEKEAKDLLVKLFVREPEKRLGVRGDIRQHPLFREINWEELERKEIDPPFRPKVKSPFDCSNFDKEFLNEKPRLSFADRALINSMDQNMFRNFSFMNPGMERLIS
Method: as §1

IC50-SGK1 [1]	Ki [2] [µM]	Ki [3] [µM]	Ki [4] [µM]	IC50 [1] [µM]	Compound
Inactive	> 1	> 1	< 1		Fc1ccc(CNc2ncc3c(n2)C(C[C@H]2CCNC2)C(c2c(Cl)cccc2Cl)=N3)cc1 (stereo partly shown) [Compound 130]
Inactive	> 1	> 1	< 1		Fc1ccc(Cl)cc1CNc1ncc2c(n1)C(C[C@H]1CCNC1)C(c1c(Cl)cccc1Cl)=N2 (stereo partly shown) [Compound 131]
Inactive	> 1	> 1	< 1		Clc1cccc(Cl)c1-c1nc2cnc(NCc3ccccc3)nc2n1C[C@H]1CCNC1 [Compound 133]
Inactive	> 10	> 1	< 10		Clc1cc(Cl)cc(CNc2ncc3nc(-c4c(Cl)cccc4Cl)n(C[C@@H]4CCCNC4)c3n2)c1 [Compound 134]
Inactive	> 1	> 1	< 1		Clc1cccc(CNc2ncc3nc(-c4c(Cl)cccc4Cl)n(C[C@H]4CCNC4)c3n2)c1 [Compound 135]
Inactive	> 1	> 1	< 1		Fc1ccc(CNc2ncc3nc(-c4ccccc4Cl)n(C[C@@H]4CCCNC4)c3n2)cc1F [Compound 136]
Inactive	> 1	> 1	< 1		C[C@H](Nc1ncc2nc(-c3c(Cl)cccc3Cl)n(CC3CCNC3)c2n1)c1ccccc1F (stereo partly shown) [Compound 138]
	> 10	> 10	< 1	> 1	Clc1cccc(Cl)c1-c1nc2cnc(NCc3ccccc3)nc2n1CCC1CCNCC1 [Compound 141]
	> 1	> 1	< 1	> 10	Fc1ccc(CNc2ncc3nc(-c4c(Cl)cccc4Cl)n(CC4CCNC4)c3n2)cc1F (stereo not shown) [Compound 142]
Inactive	> 1	> 1	< 1		NCCN1CCC(n2c(-c3c(Cl)cccc3Cl)nc3cnc(NCc4ccccc4F)nc32)CC1 [Compound 143]
Inactive	> 1	> 1	< 1		Fc1ccc(CNc2ncc3nc(-c4c(F)cccc4Cl)n(C[C@@H]4CCCNC4)c3n2)c(F)c1 [Compound 144]
Inactive	> 1	> 1	< 1		Fc1cc(F)cc(CNc2ncc3nc(-c4c(Cl)cccc4Cl)n(CCC4CCNCC4)c3n2)c1 [Compound 146]
Inactive	> 1	> 1	< 1		Fc1cccc(CNc2ncc3nc(-c4c(Cl)cccc4Cl)n(CC4CCNC4)c3n2)c1 (stereo not shown) [Compound 147]
	> 1	> 1	< 1	> 10	Fc1ccc(CNc2ncc3nc(-c4c(Cl)cccc4Cl)n(CCC4CCNCC4)c3n2)c(F)c1 [Compound 148]
Inactive	> 1	> 1	< 1		Fc1ccccc1CNc1ncc2nc(-c3c(Cl)cccc3Cl)n(CC3CCNC3)c2n1 (stereo not shown) [Compound 150]
	> 1	> 1	< 1	> 10	Clc1cccc(Cl)c1-c1nc2cnc(NCc3ccccc3)nc2n1CC1CCNC1 (stereo not shown) [Compound 151]
	> 1	> 1	< 1	> 1	Fc1ccccc1CNc1ncc2nc(-c3c(Cl)cccc3Cl)n(C[C@H]3CCNC3)c2n1 [Compound 153]
	> 1	> 1	< 10	> 1	Clc1ccc(CNc2cc3c(cn2)nc(-c2c(Cl)cccc2Cl)n3CCC2CCNCC2)cc1Cl [Compound 154]
Inactive	> 1	> 1	< 1		Fc1ccc(CNc2cc3c(cn2)nc(-c2c(F)cccc2Cl)n3C[C@@H]2CCNC2)cc1Cl [Compound 155]
	> 10	> 1	< 1	> 1	Fc1ccccc1CNc1ncc2nc(-c3c(F)cccc3Cl)n(C[C@H]3CCCNC3)c2n1 [Compound 156]
	> 1	> 1	< 1	> 10	Fc1ccc(CNc2ncc3nc(-c4c(Cl)cccc4Cl)n(CC4CCNC4)c3n2)cc1 (stereo not shown) [Compound 158]
Inactive	> 1	> 1	< 1		Fc1ccccc1CNc1ncc2nc(-c3c(F)cccc3Cl)n(CC3CCCNC3)c2n1 (stereo not shown) [Compound 160]

IC50-SGK1 [1]	Ki [2] [µM]	Ki [3] [µM]	Ki [4] [µM]	IC50 [1] [µM]	Compound
	> 0.25	> 0.25	< 0.1	> 10	Fc1ccc(F)c(CNc2ncc3nc(-c4c(Cl)cccc4Cl)n(CC4CCNC4)c3n2)c1 (stereo not shown) [Compound 161]
Inactive	> 1	> 10	< 1		Fc1ccccc1CNc1ncc2nc(-c3c(F)cccc3Cl)n(C[C@H]3CCCNC3)c2n1 [Compound 162]
Inactive	> 1	> 1	< 1		Fc1ccc(CNc2ncc3nc(-c4c(Cl)cccc4Cl)n(CCC4CCNCC4)c3n2)cc1 [Compound 163]
Inactive	> 1	> 1	< 1		Fc1ccccc1CNc1ncc2nc(-c3c(Cl)cccc3Cl)n(CCC3CCCNC3)c2n1 (stereo not shown) [Compound 164]
	> 1	> 1	< 1	> 10	C[C@H](Nc1ncc2nc(-c3c(Cl)cccc3Cl)n(CC3CCNC3)c2n1)c1ccccc1F (stereo partly shown) [Compound 166]
Inactive	> 10	> 1	< 1		Fc1ccc(F)c(CNc2ncc3nc(-c4ccccc4Cl)n(C[C@@H]4CCCNC4)c3n2)c1 [Compound 167]
Inactive	> 1	> 1	< 1		Clc1cccc(Cl)c1-c1nc2cnc(NCc3cccs3)nc2n1C[C@H]1CCNC1 [Compound 170]
Inactive	> 1	> 1	< 1		Fc1ccc(CNc2ncc3nc(-c4ccccc4Cl)n(C[C@@H]4CCCNC4)c3n2)cc1 [Compound 171]
Inactive	> 1	> 1	< 1		Fc1ccc(CNc2ncc3nc(-c4c(Cl)cccc4Cl)n(CC4CCNC4)c3n2)c(F)c1 (stereo not shown) [Compound 172]
	> 1	> 1	< 10	> 10	Clc1ccc(CNc2ncc3nc(-c4c(Cl)cccc4Cl)n(CCC4CCNCC4)c3n2)cc1 [Compound 173]
Inactive	> 1	> 1	< 1		Fc1ccc(CNc2ncc3nc(-c4c(F)cccc4Cl)n(C[C@H]4CCNC4)c3n2)cc1F [Compound 174]
Inactive	> 10	> 1	< 10		Fc1cccc(Cl)c1-c1nc2cnc(NCc3cc(Cl)cc(Cl)c3)nc2n1C[C@@H]1CCCNC1 [Compound 200]
Inactive	> 1	> 1	< 1		Fc1cccc(CNc2ncc3nc(-c4c(F)cccc4Cl)n(C[C@H]4CCNC4)c3n2)c1 [Compound 205]
	> 10	> 1	< 10	> 10	Clc1ccc(CNc2ncc3nc(-c4c(Cl)cccc4Cl)n(CC4CCNC4)c3n2)cc1Cl (stereo not shown) [Compound 206]
Inactive	> 10	> 1	< 10		NCCCCCCn1c(-c2ccccc2Cl)nc2cnc(NCc3ccccc3F)nc21 [Compound 207]
Inactive	> 1	> 1	< 1		Fc1ccc(F)c(CNc2ncc3nc(-c4c(F)cccc4Cl)n(C[C@H]4CCNC4)c3n2)c1 [Compound 209]
Inactive	> 10	> 1	< 10		Fc1ccc(CNc2ncc3nc(-c4ccccc4Cl)n(C[C@@H]4CCCNC4)c3n2)c(F)c1 [Compound 210]
	> 1	> 1	< 1	> 1	Fc1ccccc1CNc1ncc2nc(-c3c(F)cccc3Cl)n(C[C@H]3CCNC3)c2n1 [Compound 211]
Inactive	> 10	> 10	< 10		CC(Nc1ncc2nc(-c3c(Cl)cccc3Cl)n(CCC3CCNCC3)c2n1)c1ccccc1 (stereo not shown) [Compound 212]
Inactive	> 10	> 10	< 10		Fc1cc(Cl)ccc1CNc1ncc2nc(-c3c(Cl)cccc3Cl)n(C[C@@H]3CCCNC3)c2n1 [Compound 213]
	> 1	> 1	< 10	> 10	Clc1cccc(Cl)c1-c1nc2cnc(NCc3ccco3)nc2n1CCC1CCNCC1 [Compound 214]
